How the values were obtained:
B-NHL cell lines [1] = test: Treatment of B-NHL cell lines with alkoxyamines (cell killing); type: cell-based; conditions: for killing of a B-NHL cell line (cytotoxicity): comparison of alkoxyamines AA3 through AA7, FIG. 17
AP sites in DNA = test: AP site labeling reaction on synthetic oligomer (gel shift, click reaction); type: biochemical; conditions: for product formation: pH 7
Experimental: A 6-carboxyfluorescein-(6-FAM-) labeled oligonucleotide U-17-mer (5-6-FAM-ATTATTAUCCATTTATT-3′, […]) was used for the AP site labeling reaction. The oligomer (4 pmol) was incubated with E. coli uracil DNA glycosylase (UDG, 1 unit, New England Labs) at 37° C. for 30 min in reaction buffer containing 20 mM Tris-HCl (pH 8.0), 1 mM DTT and 1 mM EDTA to create AP site containing DNA. The alkoxyamine [methoxyamine, MX (Sigma-Aldrich); aldehyde reactive probe, ARP (Dojindo Laboratories) or AA3] was added into the oligomer solution at indicated concentrations, and incubated at 37° C. for another 30 min. In some experiments, the pH of the solution was adjusted with HCl or NaOH solution following removal of uracil and the pH was confirmed using pH paper. Following the reaction of alkoxyamine, unlabeled AP sites were reduced by the addition of NaBH4 (Sigma-Aldrich) to 100 mM and further incubation for 5 min. If this step was omitted, we observed significant degradation of the DNA. The reactions were stopped by the addition of formamide, loading dye and heating to 95° C. for5 min. The DNAs were electrophoresed in 20% polyacrylamide gels containing 7 M urea and scanned using a Typhoon 9210 phosphorimager (GE Healthcare). Product bands in images were quantified using ImageQuant software. In experiments involving competition between alkoxyamines, AP site containing DNA was reacted with the first alkoxyamine at 37° C. for 30 min. This was followed by the addition of the second alkoxyamine and incubation for an additional 30 min. The reactions were stopped and the products were analyzed as described above.
Biotin azide or Cy5 azide (Lumiprobe) was added to a solution of AA3-linked 17-mer to 0.5 mM followed by the addition of a freshly prepared solution of CuBr/TBTA (1:3 in DMSO/t-BuOH 3:1, 0.5 mM, Sigma-Aldrich). The mixture was shaken at 45° C. for 1 h. The DNAs were electrophoresed and analyzed as described above.

APE-1 = test: AP endonuclease activity assay; type: biochemical, mammalian; conditions: for protection of AP sites against cleavage by APE-1: alkoxyamine reaction at pH 5
Experimental: The cleavage activity of AP endonuclease APE-1 (1 unit, New England Biolabs) was assayed using a 6-FAM labeled oligomer (4 pmol) containing a single uracil. The uracil was excised using UDG to create an AP site and the AP site was labeled with an alkoxyamine as described above. The APE-1 reaction was per-formed in the reaction buffer (50 mM potassium acetate, 20 mM Tris-acetate, 10 mM magnesium acetate, 1 mM DTT, pH 7.9) at 37° C. for 1 h. DNA products were stabilized by incubation with NaBH4 and analyzed by gel electrophoresis as described above.

B-NHL cell lines [2] = test: Treatment of B-NHL cell lines with alkoxyamines (cell killing); type: cell-based; conditions: for effect on cell growth / cell death: B-NHL cells; for cell death: even at 10 mM
Experimental: A 24 hr treatment with 1 mM AA3 killed greater than 40% cells in each culture and at 10 mM concentration, >70% cells were killed (FIG. 11). […] Therefore, AA3 cytocidal to B-NHL cells while MX and ARP are only cytostatic.

HeLa cells = test: Killing of HeLa cells by MMS combined with MX or AA3 (trypan blue exclusion); type: cell-based, human
Experimental: Methyl methanesulfonate (MMS, Sigma-Aldrich) was diluted in phosphate buffered saline. MX or AA3 was dissolved in sterile water, and the pH was adjusted to 7 using NaOH solution. The solutions of all the chemicals were freshly prepared for each cytotoxicity experiment. HeLa cells were seeded in 48-well tissue culture plates at 3×10^4 to 6×10^4 cell/mL and grown overnight in DMEM with 10% fetal bovine serum (HyClone). Cells were treated with MMS or as a combination of MMS with MX or AA3 at indicated concentrations and harvested after 24 h. The viability of the cells was assessed via trypan blue (HyClone) exclusion assay performed using TC20 Automated Cell Counter (Bio-Rad Laboratories).

| Compound | killing of a B-NHL cell line (cytotoxicity) (B-NHL cell lines [1]) | protection of AP sites against cleavage by APE-1 (APE-1) [%] | cytocidal or cytostatic to B-NHL cells (B-NHL cell lines [2]) | effect on cell growth (B-NHL cell lines [2]) | cell death (B-NHL cell lines [2]) | also measured |
| --- | --- | --- | --- | --- | --- | --- |
| CCCON [AA4, O-(n-propyl)hydroxylamine] |  |  |  |  |  | killing of a B-NHL cell line (B-NHL cell lines [1]; even at 10 mM, FIG. 17): did not significantly kill the cells |
| C#CCCON [AA5, O-(but-3-yn-1-yl)hydroxylamine] | killed these cells |  |  |  |  | effectiveness in killing relative to AA3 (B-NHL cell lines [1]; a B-NHL cell line): somewhat less effective |
| C=CCON [AA7, O-allylhydroxylamine] | cytotoxic |  |  |  |  |  |
| NOCCC(=O)NNC(=O)CCCC[C@@H]1SC[C@@H]2NC(=O)N[C@@H]21 [ARP, N′-(3-(aminooxy)propanoyl)-5-((3aS,4S,6aR)-2-oxohexahydro-H-thieno[3,4-d]imidazol-4-yl)pentanehydrazide] |  | 74 | cytostatic | temporary pause in cell growth | did not result in cell death | substrate converted to product (AP sites in DNA; 0.2 μM oligomer, 5 mM ARP, pH 7 or 8): < 20%; product formation (AP sites in DNA; 5 mM): 13%; product formation (AP sites in DNA; 10 mM): 20%; DNA cleaved by APE-1 (APE-1; AP sites reacted with alkoxyamine at pH 7): about 90% |
| COS(C)(=O)=O [MMS, Methyl methanesulfonate] |  |  |  |  |  | loss of viability (HeLa cells; MMS alone, 50 µM, after one day): very little loss of viability |
| CON [MX, methoxyamine] |  | ~100 | cytostatic | temporary pause in cell growth | did not result in cell death | protection of AP sites against APE-1 (APE-1; alkoxyamine reaction at pH 7): protected an overwhelming majority of AP sites; enhancement of killing by MMS (HeLa cells; 10 mM with MMS, six independent cultures): did enhance killing by MMS |
